≈ marks a conversion by molar mass, not a printed value. Read-outs that look alike come from different tables or passages of the source. Marks after values point to notes of the source that are not given here.
Experiments:
Type in all cases: cell-based
[1] = system: L929 (ACC2) mouse fibroblasts; experiment: MTT cytotoxicity test, L929; conditions: five days incubation, n.c. = no cytotoxicity, read-out: IC50
Text: (§1) A panel of mammalian cell lines was used to determine the cytotoxicity of the compounds following a previously published protocol. The assay was initially performed using the sensitive cell lines KB3.1 (human endocervical adenocarcinoma) and L929 (mouse fibroblasts). Active compounds were further tested using the cell lines MCF-7 (human breast adenocarcinoma), PC-3 (human prostate adenocarcinoma), SKOV-3 (ovarian carcinoma), A549 (human lung carcinoma), and A431 (human squamous cell carcinomas) (Table 6). The cell lines A549, KB 3.1, and L929 were cultured in DMEM (Gibco, provided by Thermo Fisher Scientific), PC-3 in F12-K (Gibco) and MC-7, and SKOV-3 and A431 in RPMI (Gibco). With the exception of A549, all cell lines were supplemented with 10% bovine serum (Gibco). All cell lines were cultured at 37 °C. The L929 and KB 3.1 cell lines were cultivated under an atmosphere of 10% (v/v) carbon dioxide. Cytotoxicity tests were then carried out using MTT (3-(4,5-dimethylthiazol-2-yl)-2,5-diphenyltetrazolium bromide) in 96-well microtiter plates. Serial dilutions of the compounds (60 µL aliquots, each with an initial concentration of 1 mg/mL) were added into 120 µL aliquots of cell suspension (50000 cells/mL) in the 96-well plates. These were incubated for five days, after which an MTT assay was performed. The absorbance was taken at 590 nm using an Elisa plate reader (Victor, Überlingen, Germany). The half-maximal inhibitory concentration (IC50), the concentration at which cell growth inhibition was 50% of the control, was calculated as described elsewhere.

[2] = system: KB3.1 (ACC158) human endocervical adenocarcinoma; experiment: MTT cytotoxicity test, KB3.1; conditions: KB3.1 human endocervical adenocarcinoma, five days incubation, n.c. = no cytotoxicity, read-out: IC50
Text: as §1

[3] = system: Actinobacter baumannii (DSM 30008); experiment: Serial dilution MIC assay, Actinobacter baumannii; conditions: serial dilution 67-0.5 µg/mL, overnight incubation, n.i. = no inhibition, read-out: MIC
Method: (§2) Serial dilution assays in 96-well microtiter plates were performed according to our standard protocol in order to determine the minimum inhibitory concentrations (MICs) of pure isolated compounds against different microorganisms. Essentially, aliquots of compounds 1–5 and 9 (20 µL), each with an initial concentration of 1 mg/mL, were diluted in MeOH together with the respective microorganisms to concentrations ranging between 67 µg/mL and 0.5 µg/mL in the 96-well plates, followed by overnight incubation. The MIC was then determined as the lowest concentration at which no growth of the test organism was observed. A broad spectrum of clinically approved test pathogens and sensitivity indicator strains were used in the assays (Table 4 and Table 5). Ciprofloxacin, oxytetracycline, kanamycin, and gentamycin were used as positive controls against bacterial pathogens, while nystatin was used as the positive control against fungi.

[4] = system: A549 (ACC107) human lung carcinoma; experiment: MTT cytotoxicity test, A549; conditions: five days incubation
Text: as §1

[5] = system: A431 (ACC91) human squamous cell carcinomas; experiment: MTT cytotoxicity test, A431; conditions: five days incubation
Text: as §1

[6] = system: MCF-7 (A115) human breast adenocarcinoma; experiment: MTT cytotoxicity test, MCF-7; conditions: MCF-7 human breast adenocarcinoma, five days incubation
Text: as §1

[7] = system: SKOV-3 (ovarian carcinoma); experiment: MTT cytotoxicity test, SKOV-3; conditions: five days incubation
Text: as §1

[8] = system: PC-3 (ACC465) human prostate adenocarcinoma; experiment: MTT cytotoxicity test, PC-3; conditions: PC-3 human prostate adenocarcinoma, five days incubation
Text: as §1

[9] = system: Mycolicibacterium smegmatis (ATCC 700084); experiment: Serial dilution MIC assay, Mycolicibacterium smegmatis; conditions: serial dilution 67-0.5 µg/mL, overnight incubation, n.i. = no inhibition
Method: as §2

[10] = system: Mucor hiemalis (DSM 2656); experiment: Serial dilution MIC assay, Mucor hiemalis; conditions: serial dilution 67-0.5 µg/mL, overnight incubation, n.i. = no inhibition
Method: as §2

[11] = system: Candida albicans (DSM 1665); experiment: Serial dilution MIC assay, Candida albicans; conditions: serial dilution 67-0.5 µg/mL, overnight incubation, n.i. = no inhibition
Method: as §2

[12] = system: Rhodotorula glutinis (DSM 10134); experiment: Serial dilution MIC assay, Rhodotorula glutinis; conditions: serial dilution 67-0.5 µg/mL, overnight incubation, n.i. = no inhibition
Method: as §2

[13] = system: Schizosaccharomyces pombe (DSM 70572); experiment: Serial dilution MIC assay, Schizosaccharomyces pombe; conditions: serial dilution 67-0.5 µg/mL, overnight incubation, n.i. = no inhibition
Method: as §2

[14] = system: Pichia anomala (DSM 6766); experiment: Serial dilution MIC assay, Pichia anomala; conditions: serial dilution 67-0.5 µg/mL, overnight incubation, n.i. = no inhibition
Method: as §2

[15] = system: Bacillus subtilis (DSM 10); experiment: Serial dilution MIC assay, Bacillus subtilis; conditions: DSM10, serial dilution 67-0.5 µg/mL, overnight incubation, n.i. = no inhibition, read-out: MIC
Method: as §2

[16] = system: Escherichia coli (DSM 1116); experiment: Serial dilution MIC assay, Escherichia coli; conditions: DSM1116, serial dilution 67-0.5 µg/mL, overnight incubation, n.i. = no inhibition, read-out: MIC
Method: as §2

[17] = system: Chromobacterium violaceum (DSM 30191); experiment: Serial dilution MIC assay, Chromobacterium violaceum; conditions: DSM30191, serial dilution 67-0.5 µg/mL, overnight incubation, n.i. = no inhibition, read-out: MIC
Method: as §2

[18] = system: Staphylococcus aureus (DSM 346); experiment: Serial dilution MIC assay, Staphylococcus aureus; conditions: DSM346, serial dilution 67-0.5 µg/mL, overnight incubation, n.i. = no inhibition, read-out: MIC
Method: as §2

[19] = system: Pseudomonas aeruginosa (DSM PA14); experiment: Serial dilution MIC assay, Pseudomonas aeruginosa; conditions: serial dilution 67-0.5 µg/mL, overnight incubation, n.i. = no inhibition
Method: as §2

## CO[C@H]1O[C@H]2[C@H](O)CO[C@H]3O[C@H]4[C@@H](C1=CC[C@@H]1C5=C(C(C)C)CC[C@]5(C)CC[C@]14C)[C@]32O [Compound 8, dentifragilin H]
[1]; 120 h
  IC50: 10000 nM
[2]; KB 3-1, 120 h
  IC50: 2000 nM

## O=C(O)c1cn(C2CC2)c2cc(N3CCNCC3)c(F)cc2c1=O [ciprofloxacin, reference compound]
[3]
  MIC: 0.3 µg/mL (≈ 0.905 µM)

## C/C(=C\c1csc(C)n1)[C@@H]1C[C@@H]2O[C@]2(C)CCC[C@H](C)[C@H](O)[C@@H](C)C(=O)C(C)(C)[C@@H](O)CC(=O)O1 [epothilon B, reference compound]
[4]
  IC50: 0.095 nM
[5]
  IC50: 0.067 nM
[6]
  IC50: 0.03 nM
[7]
  IC50: 0.051 nM
[1]
  IC50: 0.047 nM
[2]
  IC50: 0.033 nM
[8]
  IC50: 0.15 nM

## NC[C@H]1O[C@H](O[C@H]2[C@H](O)[C@@H](O[C@H]3O[C@H](CO)[C@@H](O)[C@H](N)[C@H]3O)[C@H](N)C[C@@H]2N)[C@H](O)[C@@H](O)[C@@H]1O [kanamycin, reference compound]
[9]
  MIC: 1.7 ^b µg/mL

## C[C@@H]1[C@H](O)[C@@H](C)/C=C/C=C/CC/C=C/C=C/C=C/C=C/C(O[C@H]2O[C@H](C)[C@@H](O)[C@H](N)[C@@H]2O)CC2O[C@](O)(CC(O)C(O)CCC(O)CC(O)CC(O)CC(=O)O[C@H]1C)CC(O)C2C(=O)O (stereo partly drawn) [nystatin, reference compound]
[10]
  MIC: 4.2 µg/mL (≈ 4.54 µM)
[11]
  MIC: 8.3 µg/mL (≈ 8.96 µM)
[12]
  MIC: 2.1 µg/mL (≈ 2.27 µM)
[13]
  MIC: 4.2 µg/mL (≈ 4.54 µM)
[14]
  MIC: 8.3 µg/mL (≈ 8.96 µM)

## CN(C)[C@@H]1C(O)=C(C(N)=O)C(=O)[C@@]2(O)C(O)=C3C(=O)c4c(O)cccc4[C@@](C)(O)[C@H]3[C@H](O)[C@@H]12 [oxytetracycline, reference compound]
[15]
  MIC: 4.2 µg/mL (≈ 9.12 µM)
[16]
  MIC: 3.3 µg/mL (≈ 7.17 µM)
[17]
  MIC: 0.8 µg/mL (≈ 1.74 µM)
[18]
  MIC: 0.2 µg/mL (≈ 0.434 µM)

## gentamycin [reference compound]
[19]
  MIC: 0.4 ^d µg/mL

Source: PMC9405216, “Antimicrobial and Cytotoxic Cyathane-Xylosides from Cultures of the Basidiomycete Dentipellis fragilis” (Antibiotics, 2022)
